PubChem BioAssay AID1963842 (Molecular Pharmacology Branch, DTP, NCI, 2024)

Tested on: 677734-321-R-J1-PDC complex spheroid viability
Test: Anticancer human tumor 677734-321-R-J1-PDC patient-derived soft tissue sarcoma cell line growth inhibition [POLQ]
Details: for IC50: curve of first compound; for viability, T/C: stronger effect = lower value
Outline: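 Three-cell-type spheroids modelling solid tumor plus stroma served as the readout system; POL inhibitors were tested individually and in combination, concentration ranges set by clinical Cmax where known.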

[1] = second compound 0.0316 µM, first compound 0.0316 µM
[2] = second compound 0.0316 µM, first compound 0.1 µM
[3] = second compound 0.0316 µM, first compound 0.316 µM
[4] = second compound 0.0316 µM, first compound 1 µM
[5] = second compound 0.0316 µM, first compound 3.16 µM
[6] = second compound 0.0316 µM, first compound 10 µM
[7] = second compound 0.1 µM, first compound 0.0316 µM
[8] = second compound 0.1 µM, first compound 0.1 µM
[9] = second compound 0.1 µM, first compound 0.316 µM
[10] = second compound 0.1 µM, first compound 1 µM
[11] = second compound 0.1 µM, first compound 3.16 µM
[12] = second compound 0.1 µM, first compound 10 µM
[13] = second compound 0.316 µM, first compound 0.0316 µM
[14] = second compound 0.316 µM, first compound 0.1 µM
[15] = second compound 0.316 µM, first compound 0.316 µM
[16] = second compound 0.316 µM, first compound 1 µM
[17] = second compound 0.316 µM, first compound 3.16 µM
[18] = second compound 0.316 µM, first compound 10 µM
[19] = second compound 1 µM, first compound 0.0316 µM
[20] = second compound 1 µM, first compound 0.1 µM
[21] = second compound 1 µM, first compound 0.316 µM
[22] = second compound 1 µM, first compound 1 µM
[23] = second compound 1 µM, first compound 3.16 µM
[24] = second compound 1 µM, first compound 10 µM
[25] = second compound 3.16 µM, first compound 0.0316 µM
[26] = second compound 3.16 µM, first compound 0.1 µM
[27] = second compound 3.16 µM, first compound 0.316 µM
[28] = second compound 3.16 µM, first compound 1 µM
[29] = second compound 3.16 µM, first compound 3.16 µM
[30] = second compound 3.16 µM, first compound 10 µM
[31] = second compound 10 µM, first compound 0.0316 µM
[32] = second compound 10 µM, first compound 0.1 µM
[33] = second compound 10 µM, first compound 0.316 µM
[34] = second compound 10 µM, first compound 1 µM
[35] = second compound 10 µM, first compound 3.16 µM
[36] = second compound 10 µM, first compound 10 µM
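Further: spheroids exposed to compounds for one week.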
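Wherever viability, T/C is given: 100% = vehicle DMSO treated spheroids.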

COc1ccc([C@@H](O)c2cc(-c3ncnc4cc(N5CCOCC5)ccc34)c(F)cc2Cl)nn1 + Cc1cccc(N(C)C(=O)C2C(O)CCN2c2nc(C)cc(C(F)(F)F)c2C#N)c1
IC50 (second compound 0.0316 µM): > 10 µM | IC50 (second compound 0.1 µM): 9.31 µM | IC50 (second compound 0.316 µM): 9.22 µM | IC50 (second compound 1 µM): > 10 µM | IC50 (second compound 3.16 µM): > 10 µM | IC50 (second compound 10 µM): 7.64 µM | viability, T/C [1]: 109% | viability, T/C [2]: 103% | viability, T/C [3]: 96.2% | viability, T/C [4]: 93.4% | viability, T/C [5]: 74.9% | viability, T/C [6]: 53.7% | viability, T/C [7]: 99.3% | viability, T/C [8]: 98.9% | viability, T/C [9]: 95% | viability, T/C [10]: 92.9% | viability, T/C [11]: 79.4% | viability, T/C [12]: 47.6% | viability, T/C [13]: 105% | viability, T/C [14]: 101% | viability, T/C [15]: 93.8% | viability, T/C [16]: 91.3% | viability, T/C [17]: 77.4% | viability, T/C [18]: 47.2% | viability, T/C [19]: 107% | viability, T/C [20]: 97.8% | viability, T/C [21]: 92.7% | viability, T/C [22]: 90.1% | viability, T/C [23]: 81.2% | viability, T/C [24]: 55.5% | viability, T/C [25]: 102% | viability, T/C [26]: 101% | viability, T/C [27]: 90.8% | viability, T/C [28]: 95.7% | viability, T/C [29]: 68.7% | viability, T/C [30]: 50.9% | viability, T/C [31]: 102% | viability, T/C [32]: 90.4% | viability, T/C [33]: 94.6% | viability, T/C [34]: 92.5% | viability, T/C [35]: 69.7% | viability, T/C [36]: 44%

O=C(Nc1ccc(O)c(NS(=O)(=O)c2ccc(F)cc2)c1)c1ccc(-c2ccccc2)cc1 + Cc1cccc(N(C)C(=O)C2C(O)CCN2c2nc(C)cc(C(F)(F)F)c2C#N)c1
IC50 (second compound 0.0316 µM): 4.14 µM | IC50 (second compound 0.1 µM): 5.42 µM | IC50 (second compound 0.316 µM): 3.71 µM | IC50 (second compound 1 µM): 3.42 µM | IC50 (second compound 3.16 µM): 2.08 µM | IC50 (second compound 10 µM): 1.47 µM | viability, T/C [1]: 89.4% | viability, T/C [2]: 92.9% | viability, T/C [3]: 97.1% | viability, T/C [4]: 96.7% | viability, T/C [5]: 60.3% | viability, T/C [6]: 16% | viability, T/C [7]: 98.5% | viability, T/C [8]: 95.8% | viability, T/C [9]: 101% | viability, T/C [10]: 92.7% | viability, T/C [11]: 75.6% | viability, T/C [12]: 20.9% | viability, T/C [13]: 101% | viability, T/C [14]: 97.1% | viability, T/C [15]: 99.3% | viability, T/C [16]: 70.6% | viability, T/C [17]: 58% | viability, T/C [18]: 19.3% | viability, T/C [19]: 103% | viability, T/C [20]: 90.2% | viability, T/C [21]: 101% | viability, T/C [22]: 101% | viability, T/C [23]: 52.5% | viability, T/C [24]: 15.6% | viability, T/C [25]: 84.3% | viability, T/C [26]: 110% | viability, T/C [27]: 87.6% | viability, T/C [28]: 75.7% | viability, T/C [29]: 35.5% | viability, T/C [30]: 17.9% | viability, T/C [31]: 76.8% | viability, T/C [32]: 95.1% | viability, T/C [33]: 74.6% | viability, T/C [34]: 59.1% | viability, T/C [35]: 31.5% | viability, T/C [36]: 11.4%

COc1cccc2c1C(=O)c1c(O)c3c(c(O)c1C2=O)CC(O)(C(=O)CO)CC3OC1CC(N)C(O)C(C)O1 (stereo unspecified) + Nc1ccc(C#CCN(C(=O)Cc2ncc(C(F)(F)F)cc2C(F)(F)F)c2ccc(F)cc2)nn1
IC50 (second compound 0.0316 µM): 0.0398 µM | IC50 (second compound 0.1 µM): 0.0467 µM | IC50 (second compound 0.316 µM): 0.0444 µM | IC50 (second compound 1 µM): 0.0785 µM | IC50 (second compound 3.16 µM): 0.0406 µM | IC50 (second compound 10 µM): 0.041 µM | viability, T/C [1]: 55.1% | viability, T/C [2]: 29.5% | viability, T/C [3]: 4.74% | viability, T/C [4]: 1.41% | viability, T/C [5]: 1.65% | viability, T/C [6]: 1.2% | viability, T/C [7]: 61% | viability, T/C [8]: 28.5% | viability, T/C [9]: 4.99% | viability, T/C [10]: 1.48% | viability, T/C [11]: 1.35% | viability, T/C [12]: 1.19% | viability, T/C [13]: 58.5% | viability, T/C [14]: 29.6% | viability, T/C [15]: 6.1% | viability, T/C [16]: 0.73% | viability, T/C [17]: 2.36% | viability, T/C [18]: 0.63% | viability, T/C [19]: 60% | viability, T/C [20]: 47.3% | viability, T/C [21]: 4.86% | viability, T/C [22]: 1.7% | viability, T/C [23]: 1.58% | viability, T/C [24]: 0.84% | viability, T/C [25]: 58.1% | viability, T/C [26]: 21.1% | viability, T/C [27]: 4.68% | viability, T/C [28]: 0.97% | viability, T/C [29]: 1.23% | viability, T/C [30]: 0.74% | viability, T/C [31]: 57.3% | viability, T/C [32]: 24.8% | viability, T/C [33]: 4.54% | viability, T/C [34]: 1.86% | viability, T/C [35]: 2.02% | viability, T/C [36]: 0.8%
